The supplement of paper PMC11451515

System: SEM cells
Assay: cell viability relative to DMSO control; higher = less cytotoxic
Settings: 48 h
Summary of the method: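 Viability was expressed as a per-plate percentage of DMSO wells, with cell-free wells as background. Leukemia cells (NOMO1 or SEM at 500 cells/well, P12-Ichikawa at 1000 cells/well) were adapted for at least four passages in each medium and seeded in 1536-well plates (5 μl). Library compounds in DMSO were pin-dosed over an 11-point threefold series from 47 μM to 0.79 nM, and CellTiter-Glo One luminescence was read after 48 h at 37°C.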

COc1cc2nc(N3CCN(C(=O)C4CCCO4)CC3)nc(N)c2cc1OC (configuration not stated) gave a cell viability (HPLM + 10% dialyzed FBS, 0.000781 µM) of 74.1%, a cell viability (HPLM + 10% dialyzed FBS, 0.00234 µM) of 117% and a cell viability (HPLM + 10% dialyzed FBS, 0.00702 µM) of 97%. For the same compound, the cell viability (HPLM + 10% dialyzed FBS, 0.0211 µM) was 118%, the cell viability (HPLM + 10% dialyzed FBS, 0.0632 µM) was 109% and the cell viability (HPLM + 10% dialyzed FBS, 0.19 µM) was 117%. For the same compound, the cell viability (HPLM + 10% dialyzed FBS, 0.569 µM) was 122%, the cell viability (HPLM + 10% dialyzed FBS, 1.71 µM) was 114% and the cell viability (HPLM + 10% dialyzed FBS, 5.12 µM) was 116%. For the same compound, the cell viability (HPLM + 10% dialyzed FBS, 15.4 µM) was 119%, the cell viability (HPLM + 10% dialyzed FBS, 46.1 µM) was 113% and the cell viability (RPMI 5 mM glucose + 10% dialyzed FBS, 0.000781 µM) was 84.6%. For the same compound, the cell viability (RPMI 5 mM glucose + 10% dialyzed FBS, 0.00234 µM) was 125%, the cell viability (RPMI 5 mM glucose + 10% dialyzed FBS, 0.00702 µM) was 110% and the cell viability (RPMI 5 mM glucose + 10% dialyzed FBS, 0.0211 µM) was 124%. It also gave a cell viability (RPMI 5 mM glucose + 10% dialyzed FBS, 0.0632 µM) of 134%, a cell viability (RPMI 5 mM glucose + 10% dialyzed FBS, 0.19 µM) of 142% and a cell viability (RPMI 5 mM glucose + 10% dialyzed FBS, 0.569 µM) of 27.4%. For the same compound, the cell viability (RPMI 5 mM glucose + 10% dialyzed FBS, 1.71 µM) was 134%, the cell viability (RPMI 5 mM glucose + 10% dialyzed FBS, 5.12 µM) was 162% and the cell viability (RPMI 5 mM glucose + 10% dialyzed FBS, 15.4 µM) was 148%. It also gave a cell viability (RPMI 5 mM glucose + 10% dialyzed FBS, 46.1 µM) of 128%.
